In patent US8053197B2, “Methods for detecting and treating autoimmune disorders” (Oregon Health & Science University, priority 2004, dated 2011):

Key:
[1] = system: PBMC; experiment: ELISPOT assay of IL-10 and IFN-γ secreting T cells responding to TCR CDR2 peptides; format: cell-based, human; conditions: for frequency of IFN-γ secreting cells / frequency of IL-10-secreting T cells: 5 HC donors, single peptide; for response of MS patients compared with HC: expanded panel, 3 MS patients vs 5 HC; for IFN-γ response: recognition by MS patients: induced IFN-γ-secreting T cells in all 5 HC
Experimental: FIGS. 13A-13B PBMC from healthy controls (HC) and MS patients respond differentially to TCR CDR2 peptides. A. Production of IL-10 and IFN-gamma was measured in the PBMC response to TCR BV CDR2 peptides (left) and TCR AV CDR2 peptides (right) representing the entire TCR BV and AV gene repertoire as measured by ELISPOT assay. PBMC responses to ConA were equivalent in HC and MS patients (not shown). B. Summary of cytokine-producing cells in which IL-10 or IFN-gamma production was summed for responses to all BV+AV CDR2 peptides. Total cytokine production represents the summation of IL-10-+IFN-gamma-secreting cells for all peptides. *P<0.05 comparing the frequency in HC vs. MS patients. The HC group consisted of five individuals, three females and two males. The MS patient group consisted of three individuals, two females with relapsing, remitting MS, both symptomatic, and one person with secondary, progressive MS.
To determine antigen-specific T cell frequency by ELISPOT, blood mononuclear cells were separated by Ficoll density gradient centrifugation, resuspended in 2% human AB serum, and aliquotted at 0.5 and 0.25 million cells in triplicate wells of nitrocellulose-coated microliter plates (Becton Dickinson, Franklin Lakes, N.J.) pretreated with anti-IFN-γ (Mabtech, Sweden) or anti-IL-10 (PharMingen, San Diego, Calif.) mAb. Peptides, ConA, and medium were added and the plates incubated at 37C for 24 hours (IFN-γ) or 48 hours (IL-10). Biotin-labeled secondary mAb for each cytokine was added, followed by streptavidin-alkaline phosphatase (Dako Corp., Carpinteria, Calif.) and substrate (BCIP/NBT phosphatase substrate, KPL Laboratories, Gaithersburg, Md.) to develop optimal blue staining. Cytokine spots were quantified using an AID Immunospot Analyzer (AID, Cleveland, Ohio) equipped with a high resolution lens camera and analytical software designed for use with the AID system. Mean spots/well were calculated for each Ag, and net counts established after subtraction of background (no Ag). The frequency of Ag-specific spot-forming cells per million PBMC was determined from the average net response observed at two different cell concentrations. The mean net frequency +SEM was calculated for MS patients and HC, and differences compared by Student's t test for significance (p<0.05).
PBMC were removed from plates by washing with 3× with PBS and 3× with PBS/0.05% Tween, pH 7.6. To each well was added 100 μl of either anti-IFN-γ (1 μg/ml, Mabtech, Sweden) or anti-IL-10 (2 μg/ml, PharMingen, San Diego, Calif.) and incubated for 4 hours at room temperature in the dark. Plates were washed 4× with PBS/Tween, then 100 μl per well of alkaline-phosphatase-conjugated streptavidin (DAKO) (1:1000 of stock) was added and plates were incubated for 45 minutes at room temperature. Plates were washed 4× with PBS/Tween and 6× with PBS, 1 minute each. 100 μl of BCIP/NBT substrate (KPL Laboratories, Gaithersburg, Md.) was added and the color reaction was allowed to develop for 3-7 minutes. Plates were rinsed 3× with distilled water and dried overnight at room temperature.
Plates were scanned with an Immunospot Reader (Cellular Technology Limited, Cleveland, Ohio) with optimized lighting conditions and analyzed according to the predetermined parameters of sensitivity, spot size, and background. The background counts were subtracted, and data was then normalized to cytokine secreting cells per million PBMC plated.
To evaluate native recognition of TCR determinants, the frequency of IL-10 and IFN-γ secreting T cells from the blood of 5 HC (3 females, 2 males, average age 28) was assessed using the ELISPOT assay, to detect responses to a comprehensive panel of 113 unique CDR2 peptides representing nearly all of the AV and BV repertoires (Table 1). Only 3 peptides, AV1 S4A1N1T, BV1551 and BV20S1A1N1, could not be tested due to solubility and toxicity problems. […]

[2] = system: CD4+CD25+ versus CD4+CD25− populations; experiment: Proliferation of CD4+CD25+ versus CD4+CD25− populations stimulated with TCR peptide pool or control antigens; format: cell-based, human; conditions: HC donors with measurable Treg activity
Description: To establish a connection between TCR-reactive T cells and Treg cells, whether TCR reactivity could be found in the CD4+CD25+ Treg cell subpopulation isolated directly from HC was first determined. Thus, CD4+CD25+ versus CD4+CD25− populations were isolated and stimulated with a pool of eight TCR CDR2 peptides that optimally distinguished differences in IL-10 responses between HC and MS patients (designated as Pool #1), or with control antigens, including Copolymer 1, a pool of neuropeptide antigens, and the recall antigen, TT. […] In addition, five treatment-naïve MS patients had no response to Pool #1 peptides in either the CD4+CD25+ or CD4+CD25− fractions and also had no detectable Treg activity. Six MS patients undergoing standard treatment also lacked response to Pool #1 peptides and Treg activity.

KLEEELKFLVYFQNEELIQKA (TCR CDR2 peptide.) [BV10S1P]
frequency of IFN-γ secreting cells [1]: minimal frequencies | frequency of IL-10-secreting T cells [1]: > 2000 cells/million PBMC

KHGEAPVFLMILLKGGEQKGH (TCR CDR2 peptide.) [AV29S1A2T]
frequency of IL-10-secreting T cells [1]: > 1000 cells/million PBMC | response of MS patients compared with HC [1]: as well or better than HC

NQNKEFMLLISFQNEQVLQET (TCR CDR2 peptide.) [BV19S1P]
frequency of IFN-γ secreting cells [1]: 900 cells/million PBMC

TT: the recall antigen, TT
proliferation of CD4+CD25+ compared with CD4+CD25− population [2]: present mainly in the CD4+CD25− fraction

DLGHGLRLIHYSYGVKDTNKG (TCR CDR2 peptide.) [BV12S2A2T]
IFN-γ response: recognition by MS patients [1]: poorly recognized

Glatiramer acetate [Cop-1]
proliferation of CD4+CD25+ compared with CD4+CD25− population [2]: no proliferative response above background

DLGHGLRLIHYSYGVQDTNKG (TCR CDR2 peptide.) [BV12S2A1T]
IFN-γ response: recognition by MS patients [1]: poorly recognized

SSGEMIFLIYQGSYDQQNATE (TCR CDR2 peptide.) [ADV6S1A1N1]
IFN-γ response: recognition by MS patients [1]: poorly recognized

YPNQGLQLLLKYTSAATLVKG (TCR CDR2 peptide.) [AV1S2A1N1T]
response of MS patients compared with HC [1]: as well or better than HC

ALGQGPQFIFQTYEEEERQRG (TCR CDR2 peptide.) [BV5S2]
frequencies of IL-10-secreting PBMC in MS patients versus HC [1]: significantly lower
